Test results reported in article PMC7031696 (Cell chemical biology, 2019).

System: 3D7-MR4 trophozoite parasite-infected RBCs
Assay: Metabolomic profiling (hydrophilic metabolite changes, UHPLC-MS)
Assay type: cell-based, Plasmodium falciparum

Q: How did the “peptide levels (hemoglobin catabolism signature)” value (10 × IC50^72h, 2.5 hr, trophozoites) turn out when `CC(C)(C)c1ccc2c(c1)CN(Cc1ccc(Cl)cc1)CO2` [MMV000442] was run?
A: decreased peptide levels

Q: What about the “Log2(fold changes) 1_3-Bisphosphoglyceric acid” value (metabolite 1_3-Bisphosphoglyceric acid, log2 fold change) of the same compound?
A: 0.0000

Q: And the “Log2(fold changes) 2-Hydroxy-2-methylbutanedioic acid” value (metabolite 2-Hydroxy-2-methylbutanedioic acid, log2 fold change)?
A: 0.0000

Q: And the “Log2(fold changes) 2-Isopropylmalic acid” value (metabolite 2-Isopropylmalic acid, log2 fold change)?
A: 0.0000

Q: What about the “Log2(fold changes) 2-dehydro-D-gluconate” value (metabolite 2-dehydro-D-gluconate, log2 fold change) of the same compound?
A: 0.0187

Q: What about the “Log2(fold changes) 2-oxo-4-methylthiobutanoate” value (metabolite 2-oxo-4-methylthiobutanoate, log2 fold change) of the same compound?
A: 0.0000

Q: And the “Log2(fold changes) 2_3-Diphosphoglyceric acid” value (metabolite 2_3-Diphosphoglyceric acid, log2 fold change)?
A: 0.0000

Q: What about the “Log2(fold changes) 3-phosphoglycerate” value (metabolite 3-phosphoglycerate, log2 fold change) of the same compound?
A: 0.1472

Q: What about the “Log2(fold changes) 3-phosphoserine” value (metabolite 3-phosphoserine, log2 fold change) of the same compound?
A: -0.0388

Q: What about the “Log2(fold changes) 4-Pyridoxic acid” value (metabolite 4-Pyridoxic acid, log2 fold change) of the same compound?
A: 0.3454

Q: And the “Log2(fold changes) 4-aminobutyrate” value (metabolite 4-aminobutyrate, log2 fold change)?
A: -0.2887

Q: And the “Log2(fold changes) 4-phosphopantetheine” value (metabolite 4-phosphopantetheine, log2 fold change)?
A: 0.0000

Q: What about the “Log2(fold changes) 4-phosphopantothenate” value (metabolite 4-phosphopantothenate, log2 fold change) of the same compound?
A: -0.1668

Q: And the “Log2(fold changes) 5-aminopentanoic acid” value (metabolite 5-aminopentanoic acid, log2 fold change)?
A: -0.5922

Q: And the “Log2(fold changes) 5-methyl-THF” value (metabolite 5-methyl-THF, log2 fold change)?
A: 0.0000

Q: What about the “Log2(fold changes) 5-phosphoribosyl-1-pyrophosphate” value (metabolite 5-phosphoribosyl-1-pyrophosphate, log2 fold change) of the same compound?
A: 0.0000

Q: What about the “Log2(fold changes) 6-phospho-D-gluconate” value (metabolite 6-phospho-D-gluconate, log2 fold change) of the same compound?
A: -0.0694

Q: What about the “Log2(fold changes) ADP-D-glucose” value (metabolite ADP-D-glucose, log2 fold change) of the same compound?
A: 0.0000

Q: What about the “Log2(fold changes) Acetyl-glycine” value (metabolite Acetyl-glycine, log2 fold change) of the same compound?
A: 0.0000

Q: And the “Log2(fold changes) Acetyllysine” value (metabolite Acetyllysine, log2 fold change)?
A: -2.4239

Q: What about the “Log2(fold changes) Aminoadipic acid” value (metabolite Aminoadipic acid, log2 fold change) of the same compound?
A: 0.6779

Q: And the “Log2(fold changes) CDP” value (metabolite CDP, log2 fold change)?
A: -0.1566

Q: What about the “Log2(fold changes) CDP-choline” value (metabolite CDP-choline, log2 fold change) of the same compound?
A: 0.0000

Q: And the “Log2(fold changes) CDP-ethanolamine” value (metabolite CDP-ethanolamine, log2 fold change)?
A: 0.0000

Q: What about the “Log2(fold change) of CMP” value (metabolite CMP) of the same compound?
A: -0.4256

Q: And the “Log2(fold change) of CTP” value (metabolite CTP)?
A: 0.0000

Q: And the “Log2(fold changes) Citraconic acid” value (metabolite Citraconic acid, log2 fold change)?
A: 0.0000

Q: What about the “Log2(fold change) of D-glucarate” value (metabolite D-glucarate) of the same compound?
A: 0.0000

Q: And the “Log2(fold change) of D-gluconate” value (metabolite D-gluconate)?
A: 0.0000

Q: And the “Log2(fold change) of D-glucosamine-1/6-phosphate” value (metabolite D-glucosamine-1/6-phosphate)?
A: 0.0000

Q: And the “Log2(fold change) of D-sedoheptulose-1/7-phosphate” value (metabolite D-sedoheptulose-1/7-phosphate)?
A: 0.0894

Q: What about the “Log2(fold change) of DL-Pipecolic Acid” value (metabolite DL-Pipecolic Acid) of the same compound?
A: -2.3554

Q: And the “Log2(fold change) of DLH” value (metabolite DLH)?
A: -3.0002

Q: What about the “Log2(fold change) of DLS” value (metabolite DLS) of the same compound?
A: 0.0000

Q: And the “Log2(fold change) of Decanoyl-CoA” value (metabolite Decanoyl-CoA)?
A: 0.0000

Q: And the “Log2(fold change) of EV” value (metabolite EV)?
A: 0.0000

Q: And the “Log2(fold change) of FAD” value (metabolite FAD)?
A: 0.0825

Q: And the “Log2(fold change) of FMN” value (metabolite FMN)?
A: 0.2444

Q: What about the “Log2(fold change) of G3P/DHAP” value (metabolite G3P/DHAP) of the same compound?
A: 0.3715

Q: What about the “Log2(fold change) of GDP” value (metabolite GDP) of the same compound?
A: -0.4064

Q: What about the “Log2(fold change) GMP” value (metabolite GMP) of the same compound?
A: -0.5023

Q: What about the “Log2(fold change) GTP” value (metabolite GTP) of the same compound?
A: 0.0000

Q: What about the “Log2(fold change) HVDD” value (metabolite HVDD) of the same compound?
A: 0.0000

Q: And the “Log2(fold change) Hexose” value (metabolite Hexose)?
A: 0.5242

Q: And the “Log2(fold change) Hydroxyisocaproic acid” value (metabolite Hydroxyisocaproic acid)?
A: 0.0000

Q: What about the “Log2(fold change) IDP” value (metabolite IDP) of the same compound?
A: 0.0000

Q: What about the “Log2(fold change) IMP” value (metabolite IMP) of the same compound?
A: -0.3808

Q: What about the “Log2(fold change) Inositol” value (metabolite Inositol) of the same compound?
A: 0.0000

Q: What about the “Log2(fold change) Isopentyl-PP” value (metabolite Isopentyl-PP) of the same compound?
A: 0.0000

Q: And the “Log2(fold change) L-arginino-succinate” value (metabolite L-arginino-succinate)?
A: -0.9153

Q: What about the “Log2(fold change) LD” value (metabolite LD) of the same compound?
A: 0.0782

Q: And the “Log2(fold change) Myristoyl/tetradecanoyl-CoA” value (metabolite Myristoyl/tetradecanoyl-CoA)?
A: 0.0000

Q: What about the “Log2(fold change) N-Acetyl-L-alanine” value (metabolite N-Acetyl-L-alanine) of the same compound?
A: -0.8745

Q: And the “Log2(fold change) N-acetyl-L-ornithine” value (metabolite N-acetyl-L-ornithine)?
A: -2.0207

Q: And the “Log2(fold change) N-acetyl-glucosamine-1/6-phosphate” value (metabolite N-acetyl-glucosamine-1/6-phosphate)?
A: 0.0000

Q: What about the “Log2(fold change) N-acetyl-glutamate” value (metabolite N-acetyl-glutamate) of the same compound?
A: 0.2896

Q: What about the “Log2(fold change) N-acetyl-glutamine” value (metabolite N-acetyl-glutamine) of the same compound?
A: -0.5645

Q: What about the “Log2(fold change) N-carbamoyl-L-aspartate” value (metabolite N-carbamoyl-L-aspartate) of the same compound?
A: -1.7487

Q: And the “Log2(fold change) NAD+” value (metabolite NAD+)?
A: -0.0829

Q: What about the “Log2(fold change) NADH” value (metabolite NADH) of the same compound?
A: 0.7233

Q: What about the “Log2(fold change) NADP+” value (metabolite NADP+) of the same compound?
A: 0.2722

Q: And the “Log2(fold change) NADPH” value (metabolite NADPH)?
A: 0.0000

Q: And the “Log2(fold change) O-acetyl-L-serine” value (metabolite O-acetyl-L-serine)?
A: 0.0000

Q: What about the “Log2(fold change) Octoluse 8/1P” value (metabolite Octoluse 8/1P) of the same compound?
A: 0.0000

Q: And the “Log2(fold change) Octoluse Bisphosphate” value (metabolite Octoluse Bisphosphate)?
A: -0.1456

Q: And the “Log2(fold change) PD” value (metabolite PD)?
A: -3.3951

Q: What about the “Log2(fold change) PE” value (metabolite PE) of the same compound?
A: -2.6495

Q: What about the “Log2(fold change) PEE” value (metabolite PEE) of the same compound?
A: -3.0239

Q: What about the “Log2(fold change) PEEK” value (metabolite PEEK) of the same compound?
A: -4.4264

Q: And the “Log2(fold change) PVNF” value (metabolite PVNF)?
A: -3.4246

Q: And the “Log2(fold change) Pyroglutamic acid” value (metabolite Pyroglutamic acid)?
A: -0.3004

Q: What about the “Log2(fold change) Pyrophosphate” value (metabolite Pyrophosphate) of the same compound?
A: 0.0000

Q: And the “Log2(fold change) Ribose-5-phosphate” value (metabolite Ribose-5-phosphate)?
A: -0.0687

Q: And the “Log2(fold change) S-adenosyl-L-homocysteine” value (metabolite S-adenosyl-L-homocysteine)?
A: -0.3299

Q: And the “Log2(fold change) S-adenosyl-L-methioninamine” value (metabolite S-adenosyl-L-methioninamine)?
A: 0.0000

Q: What about the “Log2(fold change) S-adenosyl-L-methionine” value (metabolite S-adenosyl-L-methionine) of the same compound?
A: 0.0000

Q: What about the “Log2(fold change) S-methyl-5'-thioadenosine” value (metabolite S-methyl-5'-thioadenosine) of the same compound?
A: 0.0000

Q: What about the “Log2(fold change) SD” value (metabolite SD) of the same compound?
A: 0.0000

Q: And the “Log2(fold change) SDL” value (metabolite SDL)?
A: 0.0000

Q: And the “Log2(fold change) SID” value (metabolite SID)?
A: 0.0000

Q: What about the “Log2(fold change) Sedoheptulose bisphosphate” value (metabolite Sedoheptulose bisphosphate) of the same compound?
A: -0.0816

Q: And the “Log2(fold change) Thiamine pyrophosphate” value (metabolite Thiamine pyrophosphate)?
A: 0.0000

Q: What about the “Log2(fold changes) UDP-D-glucose” value (metabolite UDP-D-glucose, log2 fold change) of the same compound?
A: 0.1178

Q: What about the “Log2(fold changes) UDP-D-glucuronate” value (metabolite UDP-D-glucuronate, log2 fold change) of the same compound?
A: 0.0275

Q: What about the “Log2(fold changes) UDP-N-acetyl-glucosamine” value (metabolite UDP-N-acetyl-glucosamine, log2 fold change) of the same compound?
A: -0.1255

Q: And the “Log2(fold changes) UDP” value (metabolite UDP, log2 fold change)?
A: -0.3330

Q: What about the “Log2(fold changes) UMP” value (metabolite UMP, log2 fold change) of the same compound?
A: -0.0965

Q: What about the “Log2(fold changes) UTP” value (metabolite UTP, log2 fold change) of the same compound?
A: 0.0000

Q: What about the “Log2(fold changes) VD” value (metabolite VD, log2 fold change) of the same compound?
A: 0.0000

Q: And the “Log2(fold changes) Xanthurenic acid” value (metabolite Xanthurenic acid, log2 fold change)?
A: 0.0000

Q: What about the “Log2(fold changes) a-ketoglutarate” value (metabolite a-ketoglutarate, log2 fold change) of the same compound?
A: -0.2716

Q: And the “Log2(fold changes) acetyl-CoA” value (metabolite acetyl-CoA, log2 fold change)?
A: 0.0000

Q: What about the “Log2(fold changes) acetyl-aspartate” value (metabolite acetyl-aspartate, log2 fold change) of the same compound?
A: -0.0302

Q: And the “Log2(fold changes) acetylphosphate” value (metabolite acetylphosphate, log2 fold change)?
A: 0.6335

Q: What about the “Log2(fold changes) aconitate” value (metabolite aconitate, log2 fold change) of the same compound?
A: -0.3057

Q: And the “Log2(fold changes) adenine” value (metabolite adenine, log2 fold change)?
A: 0.0000

Q: And the “Log2(fold changes) adenosine 5'-phosphosulfate” value (metabolite adenosine 5'-phosphosulfate, log2 fold change)?
A: -0.0782
